We go through one compound from patent US12454675B2, “Method of increasing protein yield in mammalian cells in serum-free culture medium” (AGENCY FOR SCIENCE, TECHNOLOGY AND RESEARCH, priority 2016, dated 2025).

Structures are written as SMILES.

The test system of one series is HEK293 cells. As to the kind of experiment: Disaccharides to support growth of HEK293 cells in PFCDM. It counts as cell-based. To be noted: 10 g/l sugar, seeding 1.0×10^6 cells/ml, 22 days. An excerpt:
In (A) CHO-K1 cells were cultivated in a serum-free protein-free cell culture medium, HyQ PF-CHO, with 3.6 g/l of different sugars (maltose, sucrose, lactose, trehalose or glucose) as carbohydrate source. The viable cell densities (lined markers) and culture viabilities (marker only) of these cultures at the beginning and end of each passage over a period of 74 days were plotted. Cultures with sucrose, lactose or trehalose were terminated on Day 31 due to the decreased culture viabilities and reduced viable cell densities. The experiment was repeated with a seeding cell density of 1.0×10^6 cells/ml to obtain similar results. In (B) CHO-DG44 cells were cultivated with a seeding cell density of 1.0×10^6 cells/ml in a serum-free protein-free cell culture medium, HyQ PF-CHO, with 10 g/l of different sugars (maltose, sucrose, lactose, trehalose or glucose) as carbohydrate source. The viable cell densities (lined markers) and cell viabilities (marker only) of these cultures at the beginning and end of each passage over a period of 22 days were plotted. In (C) HEK293 cells were cultivated with a seeding cell density of 1.0×10^6 cells/ml in a protein-free chemically defined cell culture medium, PFCDM, with 10 g/l of different sugars (maltose, sucrose, lactose, trehalose or glucose) as carbohydrate source. The viable cell densities (lined markers) and cell viabilities (marker only) of these cultures at the beginning and end of each passage over a period of 22 days were plotted. Cultures with sucrose, lactose or trehalose were terminated on Day 14 due to the decreased culture viabilities and reduced viable cell densities.

The test system of the next series is CHO-K1 cells. As to the kind of experiment: Shake flask batch growth and biochemical profiles of CHO-K1 in maltose or glucose medium. It counts as cell-based, Chinese Hamster. The protocol: Viable cell density and culture viability were determined by Trypan blue dye exclusion method using Vi-Cell XR Cell Viability Analyzer (Beckman Coulter, Brea, CA) according to manufacturer's instructions. For biochemical and other cell culture parameter analyses, 1 ml of culture sample was centrifuged at 8000 g for 10 minutes to obtain clarified supernatant. Concentrations of ammonium, glutamine, glucose and lactate were analyzed by the BioProfile 100 Plus (Nova Biomedical, Waltham, MA). Osmolality was measured using a vapor pressure osmometer (Vapro 5520, Wescor, Logan, UT), according to manufacturer's instructions. Maltose concentration was quantified using Maltose Colorimetric/Fluorometric Assay Kit (Biovision, Milpitas, CA), according to manufacturer's instructions. […] Cells were cultivated in single-use Erlenmeyer flasks (Corning), with a cell seeding density of 0.3×10^6 cells/ml in duplicates. Cell culture samples were collected and analyzed daily throughout the duration of the growth profile experiment until culture viabilities fell below 50%. When necessary, culture supernatant samples were stored at -20° C. for further analysis. […]0)=μt Equation 1

The test system of series [1] is SH87 (CHO-K1 cell line producing an anti-Her2 monoclonal antibody). Kind of series: SH87 shake flask batch cultures in PFCDM with glucose and maltose. The format is cell-based, Chinese Hamster. To be noted: 20 g/l maltose supplemented vs 14 g/l glucose and 10 g/l maltose supplemented cultures. The protocol:
Viable cell density and culture viability were determined by Trypan blue dye exclusion method using Vi-Cell XR Cell Viability Analyzer (Beckman Coulter, Brea, CA) according to manufacturer's instructions. For biochemical and other cell culture parameter analyses, 1 ml of culture sample was centrifuged at 8000 g for 10 minutes to obtain clarified supernatant. Concentrations of ammonium, glutamine, glucose and lactate were analyzed by the BioProfile 100 Plus (Nova Biomedical, Waltham, MA). Osmolality was measured using a vapor pressure osmometer (Vapro 5520, Wescor, Logan, UT), according to manufacturer's instructions. Maltose concentration was quantified using Maltose Colorimetric/Fluorometric Assay Kit (Biovision, Milpitas, CA), according to manufacturer's instructions. […] Cells were cultivated in single-use Erlenmeyer flasks (Corning), with a cell seeding density of 0.3×10^6 cells/ml in duplicates. Cell culture samples were collected and analyzed daily throughout the duration of the growth profile experiment until culture viabilities fell below 50%. When necessary, culture supernatant samples were stored at -20° C. for further analysis.

Series [2] in a line: Maltose and glucose profiles in cell-free conditioned media. The note with it: cell-free conditioned media of Days 2, 4, 6, 8; 3 g/l maltose; 37° C., 3 days. The format is physicochemical. The protocol:
In (A) SH87 cell were routinely maintained in glucose-only PFCDM was sub-cultivated into PFCDM with 4 g/l glucose, or 4 g/l glucose+3 g/l maltose. On Days 2, 4, 6 and 8, cell-free conditioned medium (CM) were harvested from both cultures. Viable cell densities (lined marker) and culture viabilities (marker only) were also monitored. In (B) CM from the maltose supplemented culture were incubated for a further 3 days at 37° C. Samples were harvested daily from these CM, starting from the day of harvest, to determine glucose and maltose concentrations. In (C) CM harvested from the glucose culture were spiked with maltose to a final concentration of 3 g/l prior to further incubation at 37° C. Samples from these CM were harvested daily for a further three (3) days to determine glucose and maltose concentrations. The averages and standard deviations from two (2) replicate shake flasks were plotted.
To further validate that the maltose was indeed utilized by the cells and not hydrolyzed in the culture media, cell-free conditioned media (CM) from Days 2, 4, 6 and 8 were obtained from a 3 g/l maltose supplemented culture as well as a 4 g/l glucose culture. 3 g/l maltose was spiked into the CM from the glucose culture, and both sets of CM were monitored over 3 days for changes in glucose and maltose concentrations at 37° C. (FIG. 4). […]

Where [3] appears, read: CHO-K1 maltose culture, 3.6 g/l.

`OC[C@H]1O[C@H](O[C@H]2[C@H](O)[C@@H](O)[C@H](O)O[C@@H]2CO)[C@H](O)[C@@H](O)[C@@H]1O` [maltose]: the “proliferation in serum-free culture medium with the sugar as sugar source” value in the series with HEK293 cells was “can proliferate”. In addition, in the series on CHO-K1 cells (CHO-K1, 3.6 g/l sugar), the “culture viabilities maintained over a longer period of time compared to glucose” value is reported as “greater than 80%”, the “day on which glutamine was completely utilized” value worked out at 5 days and the final ammonium concentration turned out to be 0.20 g/L. The compound further displayed a doubling time in the series with CHO-K1 cells (CHO-K1, 3.6 g/l sugar, viable cell density data till Day 4) of 53.7 h. Also, the “maximum viable cell density” value in the series with CHO-K1 cells (CHO-K1, HyQ PF-CHO, 3.6 g/l sugar, initial 0.3×10^6 cells/ml, maltose Day 7, glucose Day 6) is given as 1.4×10^6 cells/ml. For the same compound, in the series with CHO-K1 cells (setting [3]), the “glucose in the culture medium” value is reported as “not detectable” and the lactate production entry is “lack of lactate production”. Also, the “improvement in maximum IgG titer of batch culture” value in series [1] worked out at 15%. In addition, the “maltose hydrolysis in conditioned culture media” value in series [2] was “not occurring spontaneously”.
